Among the data in patent US20250066328A1, “PARP7 INHIBITORS” (Gilead Sciences, Inc., priority 2023, published 2025) are EC50 values, retold here.

This assay deals with STAT1 (phosphorylated at Tyr701) in NCI-H1373 cells. The experiment in a line: Phospho-STAT1 (Tyr701) LANCE Ultra TR-FRET detection assay in NCI-H1373 cells. The class given is cell-based. Particulars: Homo sapiens, NCI-H1373, 48 h, 48 hours incubation, induction of pSTAT1, normalized to 10 uM positive control and DMSO, 4-parameter fit, read-out: NH1373 pSTAT1 EC50. The method, then:
Phospho-STAT1 (Tyr701 LANCE Ultra TR-FRET Detection Assay
LANCE Ultra phospho-STAT1 (Tyr701) kits are designed for the detection of phosphorylated STAT1 in cell lysates using a simple, homogeneous LANCE Ultra sandwich assay (Cat. #TRF4028M). This assay is intended for assessing compound induction of endogenous levels of cellular STAT1 (phosphorylated at Tyr701) in NCI-H1373 cells. The NCI-H1373 cells are cultured in RPMI 1640 media containing 10% heat inactivated FBS, GlutaMAX, 1% Penicillin-Streptomycin. An Echo acoustic liquid handler is used to transfer 60 nanoliters of compound dilutions using the Echo Qualified, 384-well polypropylene microplate clear flat bottom source plates into a Greiner (#781080) cell culture microplate. NCI-H1373 cells are seeded into these compound-spotted culture plates at 30,000 cells/well in a 60 uL volume in growth media. The plates are incubated in a 5% CO2 humidified incubator at 37° C. for 48 hours. […] Briefly, […] of supplemented lysis buffer is added to each well and allowed to shake for 1 hour at 400 rpm. Next, 5 ul of remixed antibody solutions (vol/vol) prepared in detection buffer are added to each well and allowed to incubate at room temperature overnight. After spinning the plate down at 300 rpm for 1 min, the plate is read on an EnVision plate reader set up for Eu^3+ Cryptate and fluorescence emission is measured at two different wavelengths (665 nm and 620 nm). The HTRF ratio is then calculated ([…]) for each well to determine the amount of pSTAT1 in the cell lysate, and the data is then normalized to 10 uM (S)-5-((1-(3-oxo-3-(4-(5-(trifluoromethyl)pyrimidin-2-yl)piperazin-1-yl)propoxy)propan-2-yl)amino)-4-(trifluoromethyl)pyridazin-3(2H)-one positive and DMSO negative controls. The values were then plotted as a function of compound concentration and a 4-parameter fit was applied to derive the EC50 values.
Take `C[C@@H](C[C@H](F)Cn1ccc2cc(-c3ncc(C(F)(F)F)cn3)c(F)cc2c1=O)Nc1cn[nH]c(=O)c1C(F)(F)F` (single isomer, unassigned) [Example 3]: the EC50 (in general, the concentration at which the effect is half-maximal) was 11.7 nM.
The result for `C[C@@H](C[C@@H](F)Cn1ccc2cc(-c3ncc(C(F)F)cn3)c(F)cc2c1=O)Nc1cn[nH]c(=O)c1C(F)(F)F` (single isomer, unassigned) [Example 4] reads 1.08 nM; that for `C[C@@H](C[C@H](F)Cn1ccc2cc(-c3ncc(C(F)F)cn3)c(F)cc2c1=O)Nc1cn[nH]c(=O)c1C(F)(F)F` (single isomer, unassigned) [Example 5], 47.6 nM.
In the case of `COc1cnc(-c2cc3ccn(C[C@H](F)C[C@H](C)Nc4cn[nH]c(=O)c4C(F)(F)F)c(=O)c3cc2F)nc1` (single isomer, unassigned) [Example 6] it was 0.809 nM; in that of `COc1cnc(-c2cc3ccn(C[C@@H](F)C[C@H](C)Nc4cn[nH]c(=O)c4C(F)(F)F)c(=O)c3cc2F)nc1` (single isomer, unassigned) [Example 7], 152 nM.
In the case of `C[C@@H](C[C@@H](F)Cn1ccc2cc(-c3ncc(C(C)(C)O)cn3)c(F)cc2c1=O)Nc1cn[nH]c(=O)c1C(F)(F)F` (single isomer, unassigned) [Example 8] it was 3.55 nM; in that of `C[C@@H](C[C@H](F)Cn1ccc2cc(-c3ncc(C(C)(C)O)cn3)c(F)cc2c1=O)Nc1cn[nH]c(=O)c1C(F)(F)F` (single isomer, unassigned) [Example 9], 238 nM.
As to `C[C@@H](C[C@@H](F)Cn1ccc2cc(-c3ncc(C(F)F)c(N)n3)c(F)cc2c1=O)Oc1cn[nH]c(=O)c1C(F)(F)F` (single isomer, unassigned) [Example 14], the EC50 is 8.34 nM.
The result for `C[C@@H](C[C@H](F)Cn1ccc2cc(-c3ncc(C(F)F)c(N)n3)c(F)cc2c1=O)Oc1cn[nH]c(=O)c1C(F)(F)F` (single isomer, unassigned) [Example 15] reads 0.786 nM.
In the case of `C[C@@H](C[C@@H](O)Cn1ccc2cc(-c3ncc(C(F)(F)F)cn3)c(F)cc2c1=O)Oc1cn[nH]c(=O)c1C(F)(F)F` (single isomer, unassigned) [Example 17] it was 23.3 nM; in that of `C[C@@H](C[C@@H](O)Cn1ccc2cc(-c3ncc(C(F)F)cn3)c(F)cc2c1=O)Oc1cn[nH]c(=O)c1C(F)(F)F` (single isomer, unassigned) [Example 19], 1.28 nM; in that of `C[C@@H](C[C@H](O)Cn1ccc2cc(-c3ncc(C(F)F)cn3)c(F)cc2c1=O)Oc1cn[nH]c(=O)c1C(F)(F)F` (single isomer, unassigned) [Example 20], 33 nM.
In the case of `C[C@@H](C[C@@H](O)Cn1ccc2cc(-c3nc4ccccn4n3)c(F)cc2c1=O)Nc1cn[nH]c(=O)c1C(F)(F)F` (single isomer, unassigned) [Example 22], the EC50 was found to be 2.7 nM.
The result for `C[C@@H](C[C@H](O)Cn1ccc2cc(-c3nc4ccccn4n3)c(F)cc2c1=O)Nc1cn[nH]c(=O)c1C(F)(F)F` (single isomer, unassigned) [Example 23] reads 7.18 nM; that for `CC(C)(O)c1cnc(-c2cc3ccn(CCC[C@@H](COC(F)F)Oc4cn[nH]c(=O)c4C(F)(F)F)c(=O)c3cc2F)nc1` (single isomer, unassigned) [Example 34], 10000 nM; that for `CC(C)(O)c1cnc(-c2cc3ccn(CCC[C@H](COC(F)F)Oc4cn[nH]c(=O)c4C(F)(F)F)c(=O)c3cc2F)nc1` (single isomer, unassigned) [Example 35], 20.5 nM.
The result for `C[C@@H](C[C@@H](F)Cn1ccc2cc(-c3ncc(Cl)cn3)c(F)c(F)c2c1=O)Oc1cn[nH]c(=O)c1C(F)(F)F` (single isomer, unassigned) [Example 43] reads 0.62 nM; that for `C[C@@H](C[C@@H](F)Cn1ccc2cc(-c3ncc(C(C)(C)O)cn3)c(F)cc2c1=O)Oc1cn[nH]c(=O)c1C(F)(F)F` (single isomer, unassigned) [Example 51], 3.28 nM.
The result for `C[C@@H](C[C@@H](F)Cn1cc(F)c2cc(-c3ncc(C(C)(C)O)cn3)c(F)cc2c1=O)Oc1cn[nH]c(=O)c1C(F)(F)F` (single isomer, unassigned) [Example 56] reads 1.51 nM; that for `COc1cnc(-c2cc3ncn(C[C@H](F)C[C@H](C)Oc4cn[nH]c(=O)c4C(F)(F)F)c(=O)c3cc2F)nc1` (single isomer, unassigned) [Example 57], 38.8 nM.
Regarding `C[C@@H](C[C@H](F)Cn1ccc2cc(-c3ncc(C(C)(C)O)cn3)c(F)cc2c1=O)Oc1cn[nH]c(=O)c1C(F)(F)F` (single isomer, unassigned) [Example 61], the EC50 came out at 158 nM.
The result for `O=c1[nH]ncc(O[C@H](CCCn2ccc3cc(-c4ncc(C(F)(F)F)cn4)c(F)cc3c2=O)COC(F)F)c1C(F)(F)F` (single isomer, unassigned) [Example 119] reads 16.1 nM; that for `C[C@@H](CC(F)Cn1ccc2cc(-c3ncc(C(F)(F)F)cn3)c(F)cc2c1=O)Nc1cn[nH]c(=O)c1C(F)(F)F` (stereo partly drawn) [Example 1, 7-fluoro-2-[(4S)-2-fluoro-4-[[6-oxo-5-(trifluoromethyl)-1H-pyridazin-4-yl]amino]pentyl]-6-[5-(trifluoromethyl)pyrimidin-2-yl]isoquinolin-1-one], 1.88 nM; that for `C[C@@H](C[C@@H](F)Cn1ccc2cc(-c3ncc(C(F)(F)F)cn3)c(F)cc2c1=O)Nc1cn[nH]c(=O)c1C(F)(F)F` [Example 2], 0.947 nM.
In the case of `COC(C[C@H](C)Nc1cn[nH]c(=O)c1C(F)(F)F)Cn1ccc2cc(-c3ncc(C(F)(F)F)cn3)c(F)cc2c1=O` (stereo partly drawn) [Example 10, 7-fluoro-2-((4S)-2-methoxy-4-((6-oxo-5-(trifluoromethyl)-1,6-dihydropyridazin-4-yl)amino)pentyl)-6-(5-(trifluoromethyl)pyrimidin-2-yl)isoquinolin-1(2H)-one] it was 30.8 nM.
In the case of `C[C@@H](CC(F)Cn1ccc2cc(-c3ncc(C(F)(F)F)cn3)c(F)cc2c1=O)Oc1cn[nH]c(=O)c1C(F)(F)F` (stereo partly drawn) [Example 11, 7-fluoro-2-((4S)-2-fluoro-4-((6-oxo-5-(trifluoromethyl)-1,6-dihydropyridazin-4-yl)oxy)pentyl)-6-(5-(trifluoromethyl)pyrimidin-2-yl)isoquinolin-1(2H)-one] it was 3.61 nM; in that of `C[C@@H](C[C@@H](F)Cn1ccc2cc(-c3ncc(C(F)(F)F)cn3)c(F)cc2c1=O)Oc1cn[nH]c(=O)c1C(F)(F)F` [Example 12], 45.1 nM; in that of `C[C@@H](C[C@H](F)Cn1ccc2cc(-c3ncc(C(F)(F)F)cn3)c(F)cc2c1=O)Oc1cn[nH]c(=O)c1C(F)(F)F` [Example 13], 1.32 nM.
With `C[C@@H](CC(O)Cn1ccc2cc(-c3ncc(C(F)(F)F)cn3)c(F)cc2c1=O)Oc1cn[nH]c(=O)c1C(F)(F)F` (stereo partly shown) [Example 16], the EC50 was 1.12 nM.
In the case of `C[C@@H](C[C@H](O)Cn1ccc2cc(-c3ncc(C(F)(F)F)cn3)c(F)cc2c1=O)Oc1cn[nH]c(=O)c1C(F)(F)F` [Example 18] it was 1.81 nM; in that of `C[C@@H](CC(O)Cn1ccc2cc(-c3nc4ccccn4n3)c(F)cc2c1=O)Nc1cn[nH]c(=O)c1C(F)(F)F` (stereo partly drawn) [Example 21, 6-([1,2,4]triazolo[1,5-a]pyridin-2-yl)-7-fluoro-2-((4S)-2-hydroxy-4-((6-oxo-5-(trifluoromethyl)-1,6-dihydropyridazin-4-yl)amino)pentyl)isoquinolin-1(2H)-one], 13.3 nM.
The result for `C[C@@H](C[C@@H](F)Cn1cc(F)c2cc(-c3ncc(C(F)F)c(N)n3)c(F)cc2c1=O)Nc1cn[nH]c(=O)c1C(F)(F)F` [Example 24, 6-(4-amino-5-(difluoromethyl)pyrimidin-2-yl)-4,7-difluoro-2-((2R,4S)-2-fluoro-4-((6-oxo-5-(trifluoromethyl)-1,6-dihydropyridazin-4-yl)amino)pentyl)isoquinolin-1(2H)-one] reads 2.39 nM; that for `COc1cnc(-c2cc3c(F)cn(C[C@H](F)C[C@H](C)Nc4cn[nH]c(=O)c4C(F)(F)F)c(=O)c3cc2F)nc1` [Example 25], 1.01 nM.
The result for `C[C@@H](C[C@@H](F)Cn1cc(F)c2cc(-c3ncc(C(C)(C)O)cn3)c(F)cc2c1=O)Nc1cn[nH]c(=O)c1C(F)(F)F` [Example 26] reads 3.84 nM; that for `[2H]C([2H])([2H])Oc1cnc(-c2cc3ccn(C[C@H](F)C[C@H](C)Nc4cn[nH]c(=O)c4C(F)(F)F)c(=O)c3cc2F)nc1` [Example 27], 1.05 nM; that for `C[C@@H](C[C@@H](F)Cn1ccc2cc(-c3ncc(C(C)(C)O)cn3)c(F)c(F)c2c1=O)Nc1cn[nH]c(=O)c1C(F)(F)F` [Example 28], 6.51 nM.
Regarding `C[C@@H](C[C@@H](F)Cn1cc(F)c2cc(-c3ncc(C(F)F)cn3)c(F)cc2c1=O)Nc1cn[nH]c(=O)c1C(F)(F)F` [Example 29], the EC50 was found to be 1.86 nM.
